{"source": "patent US20140155321A1", "about": "“Polypeptides and Their Use” (Novabiotics Limited, priority 2012, published 2014)", "key": {"[1]": {"system": "Malassezia pachydermatis (CBS6536)", "settings": "for positive skin cultures / approximate number of cfu from skin biopsies, Group ave.: 10 d post-infection, 5% (w/v) NP108 or 2% (w/v) miconazole topical; for approximate number of cfu from skin biopsies, Group ave.: 3 days incubation; for Group ave. Day+10 clinical score: topical once a day for 6 d from 48 h post-infection, 5% (w/v) NP108 or 2% (w/v) miconazole, score 3.0 = significant crusting/erythema", "method": "Determination of the Efficacy of NP108 Against Malassezia pachydermatis (CBS6536) in a Murine Model of Localised Dermatophyte Skin Infection (10 Days Post-Infection)\nIn this Malassezia spp. skin infection study, 30 male CD1 mice (10 per treatment group) were scored daily for 10 d post-infection based on the clinical observations of the infected area. Mice were treated with test article, 5% (w/v) NP108, 2% (w/v) miconazole or vehicle commencing 48 h post-infection for 6 d. Groups of 10 mice were euthanized for culture of skin tissue 10 d post-infection. Skin samples were dissected into 10 pieces per mouse and each piece streaked onto Modified Leeming Notman agar (MLNA) for culture at 30° C. for up to 7 d. Data from these samples has been recorded as number positive for Malassezia pachydermatis CBS6536 growth per mouse and approximate number of quantifiable cfu per streaked sample; plates were read after 3 d and 7 d incubation. Test article NP108 was supplied as a 5% (w/v) dosing preparation in 65% PEG14000, supplied ready to administer without any reconstitution or dilution required, as was vehicle preparation also."}, "M. furfur DSMZ6170 [2]": {"system": "M. furfur DSMZ6170", "settings": "0.4 mg/ml zinc pyrithione, under in vitro conditions (not in conditioner)"}, "M. furfur DSMZ6170 [3]": {"system": "M. furfur DSMZ6170", "assay": "Antifungal efficacy in conditioner vehicles, surviving colony count", "assay_type": "cell-based, Malassezia furfur", "settings": "for killing of M. furfur: 60 min exposure", "method": "The antifungal efficacy of NP108 was tested in a conditioner vehicle. The following materials were tested: • 1. 10% (v/v) Head & Shoulders conditioner (anti-dandruff conditioner) • 2. 10% (v/v) Pantene conditioner (“normal” conditioner) • 3. 10% (v/v) Pantene conditioner (“normal” conditioner)+4% (w/v) NP 108 • 4. Phosphate Buffered Saline (PBS)\n(§1) All yeast inocula for this experiment were prepared to the 0.5 McFarland Standard. 400 μl of yeast inoculum was exposed to 100 μl of the materials described above for 1 h at 37° C., followed by washing to remove all traces of the materials. Serial dilutions of the yeasts were prepared (10^0-10^−5; 10-fold dilutions) and 100 μl was spread on Modified Christensen's Medium and incubated at 30° C. for 48 h and numbers of surviving colonies counted. All experiments were carried out in triplicate.\n(§2) In a further experiment, the effect of incubation time on killing of Malassezia spp. was investigated. The following materials were tested: • 1. 0.04% (w/v) Zinc Pyrithione in 19.2% (v/v) Head &Shoulders conditioner • 2. 1.0% (w/v) NP108 in 19.2% (v/v) Head & Shoulders conditioner • 3. 19.2% (v/v) Head & Shoulders conditioner\nas §1, with “[…]” for “400 μl”, “above and incubated at 30° C.” for “above”, “for 0, 3, 10, 30 or 60 min,” for “for 1 h at 37° C.,”\nIn the following experiment, all samples of M. furfur DSMZ6170 (0.5 McFarland Standard) were exposed to 10% (v/v) H & S Conditioner, containing 10.0 (1.0%) mg/ml NP108 or 0.4 mg/ml zinc pyrithione (the active ingredient in H & S shampoo). The control samples were exposed to 10% (v/v) H & S Conditioner. The negative control samples were exposed to water alone (data not shown).\nIn the following experiment, all samples of M. furfur DSMZ6170 (0.5 McFarland Standard) were exposed to 10% (v/v) H & S Conditioner or 10% (v/v) Pantene Conditioner and a further treatment of 40 mg/ml NP108 (4.0%) in 10% (v/v) Pantene Conditioner. The control sample was exposed to PBS alone. All incubations were carried out for 60 min."}, "[4]": {"system": "human dermal fibroblast (BJ) cells", "assay": "Cytotoxicity versus human dermal fibroblast (BJ) cells", "assay_type": "cell-based", "settings": "BJ fibroblasts", "method": "(§3) Haematotoxicity versus 10% human red blood cells and cyctotoxicity versus human dermal fibroblast (BJ) cells and human lung epithelial (A549) cells was determined by standard in vitro procedures known to those skilled in the art (Table 1 and FIG. 1)."}, "human red blood cells": {"system": "human red blood cells", "assay": "Haematotoxicity (haemolysis) versus 10% human red blood cells", "assay_type": "cell-based", "method": "as §3"}, "M. furfur DSMZ6170 [5]": {"system": "M. furfur DSMZ6170", "assay": "MIC by modified CLSI M27-A3 broth dilution versus M. furfur DSMZ6170", "assay_type": "cell-based, Malassezia furfur", "method": "(§4) The minimum inhibitory concentration (MIC) of all materials was determined according to methods described in the Clinical and laboratory Standards institute Approved Standard “Reference Method for Broth Dilution Antifungal Susceptibility Testing of Yeasts—Third Edition (M27-A3)” with the following modifications. In place of RPMI-1640 liquid medium, Modified Christensen's Medium, without the addition of agar, was used."}, "[6]": {"system": "M. pachydermatis NCPF3667", "assay": "MIC by modified CLSI M27-A3 broth dilution versus M. pachydermatis NCPF3667", "assay_type": "cell-based, Malassezia pachydermatis", "settings": "Table 2", "method": "as §4"}, "M. pachydermatis CBS6536 [7]": {"system": "M. pachydermatis CBS6536", "assay": "MIC by modified CLSI M27-A3 broth dilution versus M. pachydermatis CBS6536", "assay_type": "cell-based, Malassezia pachydermatis", "method": "as §4"}, "M. pachydermatis CBS6536 [8]": {"system": "M. pachydermatis CBS6536", "assay": "Antifungal efficacy in Head & Shoulders conditioner, surviving colony count", "assay_type": "cell-based, Malassezia pachydermatis", "settings": "FIG. 6", "method": "as §2\nas §1, with “[…]” for “400 μl”, “above and incubated at 30° C.” for “above”, “for 0, 3, 10, 30 or 60 min,” for “for 1 h at 37° C.,”\nIn the following experiment, all samples of M. pachydermatis CBS6536 (0.5 McFarland Standard) were exposed to 10% (v/v) Head & Shoulders (H & S) Conditioner, containing 0 (0%), 1.0 (0.1%) or 10.0 (1.0%) mg/ml NP108. The positive control samples were exposed to 10% (v/v) Head & Shoulders Conditioner. The negative control samples were exposed to water alone."}, "M. furfur DSMZ6170 [9]": {"system": "M. furfur DSMZ6170", "assay": "Antifungal efficacy in a shampoo vehicle, surviving colony count", "assay_type": "cell-based, Malassezia furfur", "settings": "40 mg/ml NP108 in 10% (v/v) Pantene shampoo; 60 min exposure; FIG. 5", "method": "The antifungal efficacy of NP108 was tested in a shampoo vehicle. The following materials were tested: • 1. 10% (v/v) Head & Shoulders shampoo (anti-dandruff shampoo) • 2. 10% (v/v) Pantene shampoo (“normal” shampoo) • 3. 10% (v/v) Pantene shampoo (“normal” shampoo)+4% (w/v) NP108 • 4. Phosphate Buffered Saline (PBS)\nas §1, with “yeast inocula” for “yeasts”\nIn the following experiment, all samples of M. furfur DSMZ6170 (0.5 McFarland Standard) were exposed to 10% (v/v) Head & Shoulders (H & S) Shampoo, 10% (v/v) Pantene Shampoo and 10% (v/v) Pantene Shampoo containing 40.0 (4.0%) mg/ml NP108. The negative control samples were exposed to phosphate-buffered saline (PBS) alone. H & S Shampoo contains zinc pyrithione (˜1%) as an antifungal agent proven to kill Malassezia spp."}, "[10]": {"settings": "Table 1, 1×10^6-5×10^6 cells/ml, Modified Christensen's Medium"}, "[11]": {"settings": "Table 2, M. pachydermatis CBS6536"}}, "note": "Like-named read-outs stand apart in the source and are kept apart here.", "data": [{"molecule": "Clc1ccc(COC(Cn2ccnc2)c2ccc(Cl)cc2Cl)c(Cl)c1", "note": "(centres unmarked) [miconazole, reference compound]", "values": [{"measurement": "positive skin cultures", "setting": "[1]", "result": 100, "unit": "%"}, {"measurement": "approximate number of cfu from skin biopsies, Group ave.", "setting": "[1]", "result": 131.4, "unit": "cfu/mouse"}, {"measurement": "Group ave. Day+10 clinical score", "setting": "[1]", "result": 1.31}]}, {"molecule": "zinc pyrithione [reference compound]", "values": [{"measurement": "killing of M. furfur", "setting": "M. furfur DSMZ6170 [2]", "result": "sufficient to kill"}, {"measurement": "antifungal activity", "setting": "M. furfur DSMZ6170 [3]; 0.4 mg/ml zinc pyrithione in H & S conditioner, FIG. 7", "result": "no antifungal activity"}]}, {"molecule": "Poly-L-Lysine [NP108]", "values": [{"measurement": "Cytotoxicity (BJ; LD50)", "setting": "[4]", "result": "4,500 μg/ml"}, {"measurement": "killing of M. furfur", "setting": "M. furfur DSMZ6170 [3]; 10 mg/ml NP108 (1.0%) in H & S conditioner, FIG. 7", "result": "Complete killing"}, {"measurement": "antifungal activity", "setting": "M. furfur DSMZ6170 [3]; 10 mg/ml NP108 (1.0%) in H & S conditioner, after as little as 3 min exposure, time-dependent increase, FIG. 7", "result": "demonstrates antifungal activity"}, {"measurement": "killing of M. furfur", "setting": "M. furfur DSMZ6170 [3]; 40 mg/ml NP108 (4.0%) in 10% (v/v) Pantene conditioner, FIG. 8", "result": "completely killing"}, {"measurement": "Haemolysis (LD50)", "setting": "human red blood cells", "result": ">10,000 μg/ml"}, {"measurement": "MIC50 Median", "setting": "M. furfur DSMZ6170 [5]; Table 2", "result": 250, "unit": "mg/L"}, {"measurement": "MIC80 Median", "setting": "M. furfur DSMZ6170 [5]; Table 2", "result": 1000, "unit": "mg/L"}, {"measurement": "MIC80 Range", "setting": "M. furfur DSMZ6170 [5]; Table 2", "result": "500 to 2000", "unit": "mg/L"}, {"measurement": "MIC100 Median", "setting": "M. furfur DSMZ6170 [5]; Table 2", "result": 2000, "unit": "mg/L"}, {"measurement": "MIC100 Range", "setting": "M. furfur DSMZ6170 [5]; Table 2", "result": "2000 to 4000", "unit": "mg/L"}, {"measurement": "MIC50 Range", "setting": "M. furfur DSMZ6170 [5]; Table 2, three independent experiments", "result": "125 to 500", "unit": "mg/L"}, {"measurement": "MIC50 Median", "setting": "[6]", "result": 15.6, "unit": "mg/L"}, {"measurement": "MIC80 Median", "setting": "[6]", "result": "15.6 to 31.3", "unit": "mg/L"}, {"measurement": "MIC100 Median", "setting": "[6]", "result": 31.3, "unit": "mg/L"}, {"measurement": "MIC50", "setting": "M. pachydermatis CBS6536 [7]; [10]", "result": "62.5 to 125", "unit": "mg/L"}, {"measurement": "MIC80", "setting": "M. pachydermatis CBS6536 [7]; [10]", "result": "62.5 to 125", "unit": "mg/L"}, {"measurement": "MIC100", "setting": "M. pachydermatis CBS6536 [7]; [10]", "result": 125, "unit": "mg/L"}, {"measurement": "MIC50 Median", "setting": "M. pachydermatis CBS6536 [7]; [11]", "result": 31.25, "unit": "mg/L"}, {"measurement": "MIC80 Median", "setting": "M. pachydermatis CBS6536 [7]; [11]", "result": 62.5, "unit": "mg/L"}, {"measurement": "MIC80 Range", "setting": "M. pachydermatis CBS6536 [7]; [11]", "result": "31.25 to 125", "unit": "mg/L"}, {"measurement": "MIC100 Median", "setting": "M. pachydermatis CBS6536 [7]; [11]", "result": 62.5, "unit": "mg/L"}, {"measurement": "MIC100 Range", "setting": "M. pachydermatis CBS6536 [7]; [11]", "result": "31.25 to 125", "unit": "mg/L"}, {"measurement": "MIC50 Range", "setting": "M. pachydermatis CBS6536 [7]; Table 2, M. pachydermatis CBS6536, three independent experiments", "result": "15.63 to 31.25", "unit": "mg/L"}, {"measurement": "antifungal activity", "setting": "M. pachydermatis CBS6536 [8]; 1 mg/ml NP108 (0.1%) in H & S conditioner", "result": "no antifungal activity"}, {"measurement": "killing of M. pachydermatis", "setting": "M. pachydermatis CBS6536 [8]; 10 mg/ml NP108 (1.0%) in H & S conditioner, after as little as 3 min exposure", "result": "kills"}, {"measurement": "killing of M. furfur (surviving cfu/ml)", "setting": "M. furfur DSMZ6170 [9]", "result": "kills"}, {"measurement": "tolerability of treatment", "setting": "[1]; 5% (w/v) NP108 in 65% PEG14000, topical, throughout the study", "result": "well tolerated"}, {"measurement": "positive skin cultures", "setting": "[1]", "result": 84, "unit": "%"}, {"measurement": "approximate number of cfu from skin biopsies, Group ave.", "setting": "[1]", "result": 34.6, "unit": "cfu/mouse"}, {"measurement": "Group ave. Day+10 clinical score", "setting": "[1]", "result": 0.65}]}]}
